# Experimental data from patent publication US20220243177A1, “METHODS OF CULTURING QUIESCENT HEMATOPOIETIC STEM CELLS AND TREATMENT METHODS” (priority 2019, published 2022).
# How the values were obtained:
# Format in all cases: cell-based, mouse
# [1] = test system: MMP-low and MMP-high HSCs; test: Immunofluorescence staining and laser scanning confocal microscopy of treated HSCs; conditions: ConA 40 nM, 18 hours
# Protocol: Immunofluorescence Staining, Imaging, and Analysis—Laser Scanning Confocal Microscopy: FACS purified MMP-low and MMP-high HSCs (in average pooled from three mice) were seeded into retronectin-coated channel slides (Ibidi Cat# 80626) and fixed for 15 minutes with 10% formalin (1,000 cells). After washing with PBS, cells were permeabilized in PBS+0.25% Triton™ X-100 for 15 minutes and blocked for 1 hour in 3% BSA. Fixed and permeabilized cells were then incubated with primary antibodies (1:150) in PBS+1% BSA overnight at 4° C., washed and stained with fluorescence-conjugated secondary antibodies (1:1,000) for 1 hour at room temperature. Slides were sealed with mounting medium with DAPI. Images were captured using a Zeiss LSM880 Airyscan confocal microscope using a 100× objective (N.A. 1.46).
# For analysis by immunofluorescence staining, MMP-low and MMP-high HSCs were FACS-purified and incubated in StemSpan medium containing SCF (100 ng/ml) and TPO (20 ng/ml) for the indicated time with the indicated compounds at 37° C. in a humidified atmosphere with 5% CO2. After treatment, cells were processed for confocal imaging as described above.
# Fluorescence Intensity: Channel displaying the protein of interest were isolated and quantified on a per cell basis using the raw integrated density metric generated by the measure command. For nuclear intensity, DAPI thresholds were used to delimit the nucleus and mapped back onto the channel displaying the protein of interest to determine fluorescence intensity within the nucleus only.
# [2] = test system: MMP-low and MMP-high HSCs of CAG-RFP-EGFP-LC3 bone marrow; test: CAG-RFP-EGFP-LC3 assay; conditions: ConA 40 nM, 3 hours; superior to starving condition
# Protocol: CAG-RFP-EGFP-LC3 Assay. Total BM cells from CAG-RFP-EGFP-LC3 mice were cultured in StemSpan with SCF (10 ng/mL) and TPO (20 ng/mL) at 8×10^6 cells/ mL. Cells were either incubated with ConA (40 nM), chloroquine (CQ, […]), leupeptin ([…]) or DMSO control, or -starved amino acid-depleted RPMI 1640 media for 3 hours to induce autolysosome accumulation. Both GFP and mRFP are expressed in a single transgene, both green and red fluorescence is emitted from the same LC3 molecule, with 1:1 stoichiometry, thus allowing a more-accurate quantification of autophagosomes and autolysosomes measured by flow cytometry 3 hours post-treatment. Given the fluorescent incompatibility, only frequency of HSC with autophagosome (RFP^+GFP^+-LC3) or autolysosome formation (RFP^+-LC3) normalized to conditions with MMP-low against MMP-high HSCs was determined.
# [3] = test system: MMP-low and MMP-high HSCs; test: Lysosome acidity (LysoTracker green, LysoSensor blue); conditions: ConA 40 nM, 5 hours
# Protocol: To test lysosome acidity in MMP-low and MMP-high HSCs, FACS-sorted MMP-low and MMP-high HSCs were incubated in Stem-Span media with SCF (10 ng/mL) and TPO (20 ng/mL) or amino acid free medium (starvation) containing ConA (40 nM) or DMSO control for 5 hr; and then cells were incubated with […] Lysotracker green (LTR) or 1mM Lysosensor Blue diluted in above medium for 30 min (37° C., 5% CO2). Cells were rapidly washed with warm PBS (37° C.) three times, mounted and images were captured using a Zeiss LSM880 confocal microscope using a 40× objective (N.A. 1.4).
# [4] = test system: MMP-low and MMP-high LSK cells; test: Metabolic assays (Seahorse OCR and ECAR); conditions: ConA 40 nM, 18 hours
# Protocol: Metabolic Assays. Oxygen consumption rates (“OCR”) and extracellular acidification rates (“ECAR”) were measured using a 96-well Seahorse Bioanalyzer XF 96 according to manufacturer's instructions using Seahorse Mito Stress Test or Glycolysis Stress Test kit (Agilent Technologies). In brief, MMP-low and MMP-high LSK cells isolated from a pool of at least 11 mice (40,000 cells per well) were sorted and treated with or without ConA (40 nM) for 18 hours in StemSpan media with SCF (10 ng/mL) and TPO (20 ng/mL). Cells were washed and suspended in XF basic medium with 11 mM glucose, 1 mM sodium pyruvate and 2 mM glutamine (pH 7.4 at 37° C.). The injection port A on the sensor cartridge was loaded with […] oligomycin (Oligo), 2 mM FCCP was loaded into port B and 0.5 mM rotenone/antimycin (ROT/AA) A was loaded into port C. During sensor calibration, the cells were incubated in the 37° C. non-CO2 incubator. The plate was immediately placed onto the calibrated XF96 extracellular flux analyzer for the Mito Stress Test. For the glycolysis stress test, cells were suspended in XF basic medium in 1 mM glutamine (pH 7.4 at 37° C.). The injection port A on the sensor cartridge was loaded with 10 mM glucose. Then, 2 mM oligomycin was loaded into port B and 50 mM 2-DG into port C. During sensor calibration, cells were incubated in the 37° C. non-CO2 incubator. The plate was immediately placed in the calibrated XF96 extracellular flux analyzer for the glycolysis stress test.
# [5] = aging MMP-low and MMP-high HSCs
smiles,measurement,setting,value
"C/C=C/[C@H]1O[C@@](O)([C@@H](C)[C@H](O)[C@H](C)[C@H]2OC(=O)/C(OC)=C/C(C)=C/[C@@H](C)[C@@H](O)[C@@H](CC)[C@@H](O)[C@H](C)C/C(C)=C/C=C/[C@@H]2OC)C[C@@H](O[C@H]2C[C@@H](O)[C@H](OC(N)=O)[C@@H](C)O2)[C@@H]1C [ConA, concanamycin A]",lysosomal phenotype (LAMP2),[1],bloated lysosomal phenotype
same,mTOR co-localization with lysosomes in MMP-high HSCs,[1],lost
same,expression of Ki67 and CDK6,[1]; MMP-high HSCs,restored in ConA-treated MMP-high HSCs to the levels of the untreated MMP-low HSCs
same,"mTOR signaling (mTOR, RHEB, RAGA/B, p4EBP1) in MMP-high HSCs",[1]; almost to levels of rapamycin (40 nM)-treated HSCs,repression of mTOR signaling
same,mTOR activity in old HSCs,[1]; aging HSCs,reduced/abolished mTOR activity
same,cycling status (CDK6 staining) of aging HSCs,[1]; [5],reverted the cycling status
same,lysosomal content in old HSCs,[1]; [5],increasing lysosomal content
same,frequency of autolysosome (RFP+)-accumulated MMP-high and MMP-low HSCs,[2],specifically promoted the frequency
same,lysosomal acidity,[3],reduced
same,glycolysis (ECAR) in MMP-high and MMP-low HSPCs,[4],collapsed glycolysis
same,oxygen consumption in MMP-low HSPCs,[4],only a relatively small effect
same,oxygen consumption in primed (MMP-high) HSPCs,[4],drastically decreased oxygen consumption
